In patent US8546452B2, “S1P3 receptor antagonist” (TOA Eiyo Ltd., priority 2005, dated 2013):
Read-outs that look alike come from different tables or passages of the source.

Columns and labels:
Assay type in all cases: cell-based
[1] = molecular target: T1, hS1P1 (Homo sapiens, UniProt P21453); assay: S1P receptor subtype selectivity, S1P-induced [Ca2+]i increase in CHO-K1 cells stably expressing S1P1 (Calcium3)
T1 construct: expressed in transfected cells
Method: (§1) The selectivity to the S1P receptor subtype was examined in the following manner. […] Furthermore, a Calcium3 (Molecular Devices, Inc.) solution prepared in HBSS (+) buffer, which is a fluorescent Ca^2+ indicator, was added, and the cells were incubated for 60 minutes at 37° C. Then, 100 μL of a test compound solution prepared to a concentration of 2×10 μmol/L was added, and the cells were incubated for 20 minutes at 37° C. […] The indicator was prepared and used according to the instruction manual.
(§2) A solution of the test compound was prepared by dissolving each of the test compounds in DMSO to a concentration of 10 mmol/L, and then diluting the solution with an HBSS (+) buffer solution to the predetermined concentration. […] The measurement values were obtained by subtracting the maximum RFU value for the blind test from the maximum RFU values for control or each test compounds. A decrease in the measurement value for the test compound relative to the control was indicated as the suppression rate (%), from which the IC50 value was calculated.

[2] = molecular target: hS1P3 (Homo sapiens, UniProt Q99500); assay: Suppressive effect on S1P-induced increase in [Ca2+]i, CHO-K1 cells expressing S1P3 (Fura 2-AM), IC50; details: S1P solution 50 nmol/L, read-out: hS1P3 suppression IC50
Sequence of hS1P3 (Q99500 whole entry): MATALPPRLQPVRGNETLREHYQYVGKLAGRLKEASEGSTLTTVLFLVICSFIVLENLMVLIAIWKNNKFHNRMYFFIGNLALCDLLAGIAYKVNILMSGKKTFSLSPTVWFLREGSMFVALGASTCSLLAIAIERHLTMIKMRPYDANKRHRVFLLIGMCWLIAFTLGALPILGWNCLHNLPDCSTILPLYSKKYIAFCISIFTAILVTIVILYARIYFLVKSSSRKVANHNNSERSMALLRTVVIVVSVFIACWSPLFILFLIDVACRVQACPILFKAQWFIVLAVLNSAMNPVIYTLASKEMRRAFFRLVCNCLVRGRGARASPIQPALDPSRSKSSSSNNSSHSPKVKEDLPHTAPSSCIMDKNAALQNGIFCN

[3] = molecular target: T2, hS1P2 (Homo sapiens, UniProt O95136); assay: S1P receptor subtype selectivity, S1P-induced [Ca2+]i increase in CHO-K1 cells stably expressing S1P2 (Calcium3)
T2 construct: expressed in transfected cells
T2 sequence (O95136 whole entry): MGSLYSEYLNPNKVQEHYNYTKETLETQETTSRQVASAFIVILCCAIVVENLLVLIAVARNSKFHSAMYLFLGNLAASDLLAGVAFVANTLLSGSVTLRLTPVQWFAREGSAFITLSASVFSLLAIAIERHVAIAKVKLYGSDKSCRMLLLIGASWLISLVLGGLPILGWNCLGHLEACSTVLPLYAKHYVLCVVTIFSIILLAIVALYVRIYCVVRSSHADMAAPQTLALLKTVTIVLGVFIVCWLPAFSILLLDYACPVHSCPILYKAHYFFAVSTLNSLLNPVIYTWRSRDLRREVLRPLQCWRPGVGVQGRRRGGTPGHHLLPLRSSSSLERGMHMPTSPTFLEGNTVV
Method: as §1, §2

[4] = 10 μM, CHO-K1 stably expressing S1P1, S1P solution 100 nmol/L, Calcium3, read-out: Suppression rate at 10 μM (%) hS1P1
[5] = 10 μM, CHO-K1 stably expressing S1P2, S1P solution 100 nmol/L, Calcium3, read-out: Suppression rate at 10 μM (%) hS1P2
[6] = CHO-K1, read-out: Suppression rate at 10 μM (%) hS1P1
[7] = CHO-K1, read-out: Suppression rate at 10 μM (%) hS1P2

T1 sequence (P21453 whole entry): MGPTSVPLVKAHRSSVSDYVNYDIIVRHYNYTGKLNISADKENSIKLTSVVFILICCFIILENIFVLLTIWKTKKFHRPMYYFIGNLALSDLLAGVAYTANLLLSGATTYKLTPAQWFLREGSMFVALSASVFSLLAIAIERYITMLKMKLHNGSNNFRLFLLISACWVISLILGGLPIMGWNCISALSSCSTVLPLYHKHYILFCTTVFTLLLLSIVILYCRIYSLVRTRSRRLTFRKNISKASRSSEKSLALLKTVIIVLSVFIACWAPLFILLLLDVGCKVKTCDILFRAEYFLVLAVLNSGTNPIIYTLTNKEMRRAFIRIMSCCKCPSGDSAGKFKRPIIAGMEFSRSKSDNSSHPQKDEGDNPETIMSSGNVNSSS

Row | SMILES | inhibition at 10 µM [1, 4] [%] | IC50 [2] [µM] | inhibition at 10 µM [3, 5] [%] | inhibition at 10 µM [1, 6] [%] | inhibition at 10 µM [3, 7] [%]
1 | CCOC(=O)C(=NNc1ccc(Cl)cc1)Nc1cccc(F)c1 [Compound 13, ethyl 1-(4-chlorophenylhydrazono)-1-(3-fluorophenylamino)acetate] | 26.1 | 3.12 | -16.7 |  | 
2 | CCOC(=O)C(=NNc1ccc(Cl)cc1)Nc1ccccc1 [Compound 19, ethyl 1-(4-chlorophenylhydrazono)-1-(phenylamino)acetate] | -25.4 | 3.64 | -8.6 |  | 
3 | CCOC(=O)C(=NNc1ccc(Cl)cc1)Nc1cccc(C#N)c1 [Compound 20, ethyl 1-(4-chlorophenylhydrazono)-1-(3-cyanophenylamino)acetate] |  | 2.18 |  | -3.5 | -4.6
4 | CC(C)(C)NC(=O)C(=NNc1ccc(Cl)cc1)Nc1cccc(F)c1 [Compound 28, N-tert-butyl-[1-(4-chlorophenylhydrazono)-1-(3-fluorophenylamino)]acetamide] |  | 7.97 |  | 14.6 | 14.2
5 | CC(C)(C)NC(=O)C(=NNc1ccc(Cl)cc1)Nc1ccc(Cl)cc1 [Compound 29, N-tert-butyl-[1-(4-chlorophenylamino)-1-(4-chlorophenylhydrazono)]acetamide] |  | 5.11 |  | 29.7 | 17.4
6 | CC(C)(C)C(=O)C(=NNc1cccc(Cl)c1)Nc1cccc(F)c1 [Compound 41, 1-(3-chlorophenylhydrazono)-1-(3-fluorophenylamino)-3,3-dimethyl-2-butanone] | 18.4 | 3.54 | 27.1 |  | 
7 | CC(C)(C)C(=O)C(=NNc1cccc(Cl)c1)Nc1ccc(Cl)cc1 [Compound 42, 1-(4-chlorophenylamino)-1-(3-chlorophenylhydrazono)-3,3-dimethyl-2-butanone] |  | 2.89 |  | 7.9 | 32.9
8 | CC(C)(C)C(=O)C(=NNc1ccccc1)Nc1cccc(F)c1 [Compound 49, 1-(3-fluorophenylamino)-1-(phenylhydrazono)-3,3-dimethyl-2-butanone] | 6.6 | 5.32 | 3.6 |  | 
9 | CC(C)(C)C(=O)C(=NNc1ccccc1)Nc1ccc(Cl)cc1 [Compound 50, 1-(4-chlorophenylamino)-1-(phenylhydrazono)-3,3-dimethyl-2-butanone] |  | 3.74 |  | 25.1 | 13.6
10 | CC(C)(C)C(=O)C(=NNc1ccccc1)Nc1ccc(Cl)c(Cl)c1 [Compound 52, 1-(3,4-dichlorophenylamino)-1-(phenylhydrazono)-3,3-dimethyl-2-butanone] | 29.5 | 1.02 | 26.2 |  | 
11 | CC(C)(C)C(=O)C(=NNc1ccc(F)cc1)Nc1cccc(F)c1 [Compound 53, 1-(3-fluorophenylamino)-1-(4-fluorophenylhydrazono)-3,3-dimethyl-2-butanone] | 27.1 | 4.47 | 18.5 |  | 
12 | COc1ccc(NC(=NNc2ccc(F)cc2)C(=O)C(C)(C)C)cc1 [Compound 57, 1-(4-fluorophenylhydrazono)-1-(4-methoxyphenylamino)-3,3-dimethyl-2-butanone] | 11.5 | 4.95 | 15 |  | 
13 | Cc1ccc(NN=C(Nc2cccc(F)c2)C(=O)C(C)(C)C)cc1 [Compound 61, 1-(3-fluorophenylamino)-1-(4-methylphenylhydrazono)-3,3-dimethyl-2-butanone] | -2.9 | 3.22 | 8.1 |  | 
14 | Cc1ccc(NN=C(Nc2ccc(Cl)cc2)C(=O)C(C)(C)C)cc1 [Compound 62, 1-(4-chlorophenylamino)-1-(4-methylphenylhydrazono)-3,3-dimethyl-2-butanone] |  | 1.72 |  | -9.7 | 7.4
15 | Cc1ccc(NN=C(Nc2cc(Cl)cc(Cl)c2)C(=O)C(C)(C)C)cc1 [Compound 64, 1-(3,5-dichlorophenylamino)-1-(4-methylphenylhydrazono)-3,3-dimethyl-2-butanone] |  |  |  | -1 | 9.1
16 | COc1ccc(NN=C(Nc2ccc(Cl)cc2)C(=O)C(C)(C)C)cc1 [Compound 90, 1-(4-chlorophenylamino)-1-(4-methoxyphenylhydrazono)-3,3-dimethyl-2-butanone] |  | 6.58 |  |  | 
17 | CC(=O)c1ccc(NN=C(Nc2cccc(F)c2)C(=O)C(C)(C)C)cc1 [Compound 91, 1-(4-acetylphenylhydrazono)-1-(3-fluorophenylamino)-3,3-dimethyl-2-butanone] |  | 8.9 |  |  | 
18 | CC(=O)c1ccc(NN=C(Nc2ccc(F)cc2)C(=O)C(C)(C)C)cc1 [Compound 92, 1-(4-acetylphenylhydrazono)-1-(4-fluorophenylamino)-3,3-dimethyl-2-butanone] |  | 11.6 |  |  | 

Row | SMILES | inhibition at 10 µM [1, 4] [%] | IC50 [2] [µM] | inhibition at 10 µM [3, 5] [%] | inhibition at 10 µM [1, 6] [%] | inhibition at 10 µM [3, 7] [%]
19 | C#Cc1ccc(NC(=NNc2ccc(C(C)=O)cc2)C(=O)C(C)(C)C)cc1 [Compound 95, 1-(4-acetylphenylhydrazono)-1-(4-ethynylphenylamino)-3,3-dimethyl-2-butanone] |  | 18.6 |  |  | 
20 | CC(C)(C)C(=O)C(=NNc1ccc(S(C)(=O)=O)cc1)Nc1ccc(Cl)cc1 [Compound 99, 1-(4-chlorophenylamino)-1-(4-methanesulfonylphenylhydrazono)-3,3-dimethyl-2-butanone] |  | 10.6 |  |  | 
21 | CC(C)(C)C(=O)C(=NNc1ccc(Br)cc1)Nc1ccc(Cl)c(F)c1 [Compound 105, 1-(4-bromophenylhydrazono)-1-(4-chloro-3-fluorophenylamino)-3,3-dimethyl-2-butanone] |  | 0.52 |  |  | 
22 | C#Cc1ccc(NN=C(Nc2ccc(Cl)cc2)C(=O)C(C)(C)C)cc1 [Compound 106, 1-(4-chlorophenylamino)-1-(4-ethynylphenylhydrazono)-3,3-dimethyl-2-butanone] |  | 0.66 |  |  | 
23 | C#Cc1cccc(NC(=NNc2ccc(Cl)c(Cl)c2)C(=O)C(C)(C)C)c1 [Compound 107, 1-(3,4-dichlorophenylhydrazono)-1-(3-ethynylphenylamino)-3,3-dimethyl-2-butanone] |  | 0.69 |  |  | 
24 | CCCCC(=O)C(=NNc1ccc(Cl)cc1)Nc1ccc(Cl)c(Cl)c1 [Compound 109, 1-(4-chlorophenylhydrazono)-1-(3,4-dichlorophenylamino)-2-hexanone] |  | 0.76 |  |  | 
25 | CCC(CC)C(=O)C(=NNc1ccc(Cl)cc1)Nc1ccc(Cl)cc1 [Compound 110, 1-(4-chlorophenylamino)-1-(4-chlorophenylhydrazono)-3-ethyl-2-pentanone] |  | 0.97 |  |  | 
26 | CC(C)(C)CC(=O)C(=NNc1ccc(Cl)cc1)Nc1ccc(F)cc1 [Compound 114, 1-(4-chlorophenylhydrazono)-1-(4-fluorophenylamino)-4,4-dimethyl-2-pentanone] |  | 2.09 |  |  | 
27 | O=C(C(=NNc1ccc(Cl)cc1)Nc1ccc(Cl)cc1)c1ccco1 [Compound 116, 1-(4-chlorophenylamino)-1-(4-chlorophenylhydrazono)-2-(2-furyl)-2-ethanone] |  | 2.07 |  |  | 
28 | O=C(C(=NNc1ccc(Cl)cc1)Nc1ccc(F)cc1)c1ccco1 [Compound 118, 1-(4-chlorophenylhydrazono)-1-(4-fluorophenylamino)-2-(2-furyl)-2-ethanone] |  | 3.85 |  |  | 
29 | O=C(C(=NNc1ccc(Cl)cc1)Nc1ccc(Br)cc1)c1ccco1 [Compound 119, 1-(4-bromophenylamino)-1-(4-chlorophenylhydrazono)-2-(2-furyl)-2-ethanone] |  | 4.23 |  |  | 
30 | O=C(C(=NNc1ccc(Cl)cc1)Nc1cccc(C(F)(F)F)c1)c1ccco1 [Compound 120, 1-(4-chlorophenylhydrazono)-1-(3-trifluoromethylphenylamino)-2-(2-furyl)-2-ethanone] |  | 5.45 |  |  | 
31 | CC(C)(C)C(=O)C(=NNc1ccc(Cl)c(Cl)c1)Nc1cccc(Cl)c1 [Compound 123, 1-(3-chlorophenylamino)-1-(3,4-dichlorophenylhydrazono)-3,3-dimethyl-2-butanone] |  | 0.34 |  |  | 
32 | CC(C)(C)C(=O)C(=NNc1ccc(Cl)c(Cl)c1)Nc1ccc(Cl)cc1 [Compound 124, 1-(4-chlorophenylamino)-1-(3,4-dichlorophenylhydrazono)-3,3-dimethyl-2-butanone] |  | 0.45 |  |  | 
33 | O=C(C(=NNc1ccc(Cl)cc1)Nc1ccc(Cl)cc1)c1cccs1 [Compound 125, 1-(4-chlorophenylamino)-1-(4-chlorophenylhydrazono)-2-(2-thienyl)-2-ethanone] |  | 8.29 |  |  | 
34 | C#Cc1ccc(NC(=NNc2ccc(Cl)c(Cl)c2)C(=O)C(C)(C)C)cc1 [Compound 132, 1-(3,4-dichlorophenylhydrazono)-1-(4-ethynylphenylamino)-3,3-dimethyl-2-butanone] |  | 0.82 |  |  | 
35 | CC(C)(C)C(=O)C(=NNc1ccc(Cl)cc1)Nc1ccc(Cl)c(F)c1 [Compound 135, 1-(4-chloro-3-fluorophenylamino)-1-(4-chlorophenylhydrazono)-3,3-dimethyl-2-butanone] |  | 0.9 |  |  | 
36 | CCCCC(=O)C(=NNc1ccc(Cl)cc1)Nc1cccc(Cl)c1 [Compound 141, 1-(3-chlorophenylamino)-1-(4-chlorophenylhydrazono)-2-hexanone] |  | 1.99 |  |  | 
